# Assay results from article PMC6095594, “Pre-clinical evaluation of quinoxaline-derived chalcones in tuberculosis” (PLoS ONE, 2018).
# Like-named read-outs stand apart in the source and are kept apart here.
# Experiments:
# S. typhimurium TA100 = test: Salmonella/microsome mutagenicity test
# Method: (§1) Salmonella typhimurium strains TA98, TA97a, TA100, TA1535, and TA102 were provided by MOLTOX® (Molecular Toxicology Inc. USA). Mutagenicity was assayed according to the pre-incubation procedure following the recommendation described in Mortelmans and Zieger (2000). […] Briefly, 100 μL of test bacterial cultures (1–2 x 10^9 cells/mL) were incubated at 37 °C with different concentrations of N9 (10–400 μg/plate) in the presence or absence of S9 mix, for 20 min, without shaking. […] Plates were incubated in the dark at 37 °C for 48 h before counting the revertant colonies. Assays were repeated twice and the plating for each concentration was conducted in triplicate. Data were evaluated by one-way analysis of variance (ANOVA), followed by Dunnett's post-test, using GraphPad Prism 5.0 (GraphPad, San Diego, CA, USA).
# S. typhimurium TA1535 = test: Salmonella/microsome mutagenicity test
# Method: as §1
# S. typhimurium TA97a = test: Salmonella/microsome mutagenicity test; settings: +S9, positive control 5 μg/plate
# Method: (§2) Salmonella typhimurium strains TA98, TA97a, TA100, TA1535, and TA102 were provided by MOLTOX® (Molecular Toxicology Inc. USA). Mutagenicity was assayed according to the pre-incubation procedure following the recommendation described in Mortelmans and Zieger (2000). […] Briefly, 100 μL of test bacterial cultures (1–2 x 10^9 cells/mL) were incubated at 37 °C with different concentrations of N9 (10–400 μg/plate) in the presence or absence of S9 mix, for 20 min, without shaking. […] 2-aminoanthracene (2-AA, 5 μg/plate) was used as positive control for all strains in the presence of metabolic activation (with S9 mix). […] Plates were incubated in the dark at 37 °C for 48 h before counting the revertant colonies. Assays were repeated twice and the plating for each concentration was conducted in triplicate. Data were evaluated by one-way analysis of variance (ANOVA), followed by Dunnett's post-test, using GraphPad Prism 5.0 (GraphPad, San Diego, CA, USA).
# S. typhimurium TA98 = test: Salmonella/microsome mutagenicity test; settings: TA98, +S9, positive control 5 μg/plate
# Method: as §2
# S. typhimurium TA102 = test: Salmonella/microsome mutagenicity test; settings: TA102, +S9, positive control 5 μg/plate
# Method: as §2
# [1] = tested on: M. tuberculosis pNIP::control; test: microbe, parasite or virus in culture; type: cell-based; settings: Mycobacterium tuberculosis; pNIP::control (empty vector)
# M. tuberculosis H37Rv = test: Checkerboard assay, two-drug combination with REMA readout; type: cell-based, Mycobacterium tuberculosis; settings: for MIC: Mycobacterium tuberculosis, read-out: MIC Alone, checkerboard, drug alone, three independent experiments
# [2] = tested on: M. tuberculosis pNIP::KatG(WT); test: microbe, parasite or virus in culture; type: cell-based; settings: Mycobacterium tuberculosis
# [3] = tested on: M. tuberculosis pan-susceptible clinical isolate CDCT-28; test: microbe, parasite or virus in culture; type: cell-based; settings: Mycobacterium tuberculosis
# [4] = tested on: M. tuberculosis H37Rv strain; test: microbe, parasite or virus in culture; type: cell-based
# [5] = tested on: M. tuberculosis H37Rv strain; design: method as in Abbadi, 2018; settings: ref Abbadi, 2018; cited from earlier work
# [6] = tested on: M. tuberculosis pan-susceptible clinical isolate CDCT-28; settings: cited from earlier work
# [7] = TA100, +S9, positive control 5 μg/plate
# [8] = TA1535, +S9, positive control 5 μg/plate
# [9] = Mycobacterium tuberculosis, H37RV, read-out: MIC
# [10] = TA100, -S9, positive control 1 μg/plate
# [11] = TA1535, -S9, positive control 1 μg/plate
smiles,measurement,setting,value
"Nc1ccc2cc3ccccc3cc2c1 [2-AA, 2-aminoanthracene, reference compound]",MI: mutagenic index,S. typhimurium TA100; [7],11.03
same,Number of revertants/plate,S. typhimurium TA100; [7],1279.0±50.2 Rev/plate
same,MI: mutagenic index,S. typhimurium TA1535; [8],6.96
same,Number of revertants/plate,S. typhimurium TA1535; [8],58.0±12.7 Rev/plate
same,MI: mutagenic index,S. typhimurium TA97a,6.44
same,Number of revertants/plate,S. typhimurium TA97a,742.0±59.4 Rev/plate
same,MI: mutagenic index,S. typhimurium TA98,39.65
same,Number of revertants/plate,S. typhimurium TA98,1586.0±161.2 Rev/plate
same,MI: mutagenic index,S. typhimurium TA102,3.62
same,Number of revertants/plate,S. typhimurium TA102,1354.0±21.1 Rev/plate
"NNC(=O)c1ccncc1 [INH, isoniazid, reference compound]",MIC,[1],< 0.2 µg/mL
same,MIC Alone,M. tuberculosis H37Rv; H37RV,0.16 µg/mL
same,MIC,M. tuberculosis H37Rv; H37RV,0.31 µg/mL
same,MIC,[2],< 0.2 µg/mL
same,MIC,[3],0.39 µg/mL
same,MIC,[4]; [9],0.39 µg/mL
"COc1c(N2C[C@@H]3CCCN[C@@H]3C2)c(F)cc2c(=O)c(C(=O)O)cn(C3CC3)c12 [MFX, moxifloxacin, reference compound]",MIC,[5],<0.2 µg/mL
same,MIC,M. tuberculosis H37Rv; H37RV,0.15 µg/mL
same,Improvement of MIC of MFX in the presence of N9,M. tuberculosis H37Rv; all three experiments,4 fold
O=C(/C=C/c1ccc2nccnc2c1)c1ccc2c(c1)OCO2 [N3],MIC,[4]; [9],> 25 µg/mL
O=C(/C=C/c1ccc2nccnc2c1)c1ccc(Br)cc1 [N4],MIC,[4]; [9],> 25 µg/mL
O=C(/C=C/c1ccc2nccnc2c1)c1ccccc1O [N6],MIC,[4]; [9],> 5 µg/mL
O=C(/C=C/c1ccc2nccnc2c1)c1ccc([N+](=O)[O-])cc1 [N7],MIC,[4]; [9],> 25 µg/mL
COc1cc(C(=O)/C=C/c2ccc3nccnc3c2)cc(OC)c1OC [N15],MIC,[3],3.13 µg/mL
same,MIC,[4]; H37Rv,6.25 µg/mL
same,MIC,[4]; [9],3.13 to 12.5 µg/mL
COc1cc(OC)c(C(=O)/C=C/c2ccc3nccnc3c2)cc1OC [N17],MIC,[4]; [9],> 25 µg/mL
COc1ccccc1C(=O)/C=C/c1ccc2nccnc2c1 [N19],MIC,[4]; [9],> 25 µg/mL
COc1cc(C(=O)/C=C/c2ccc3nccnc3c2)cc(OC)c1O [N20],MIC,[4]; [9],> 25 µg/mL
COc1cccc(C(=O)/C=C/c2ccc3nccnc3c2)c1 [N23],MIC,[3],2.5 µg/mL
same,MIC,[4]; H37Rv,5 µg/mL
same,MIC,[4]; [9],3.13 to 12.5 µg/mL
N#Cc1ccc(C(=O)/C=C/c2ccc3nccnc3c2)cc1 [N33],MIC,[4]; [9],> 25 µg/mL
N#Cc1cccc(C(=O)/C=C/c2ccc3nccnc3c2)c1 [N34],MIC,[4]; [9],> 25 µg/mL
COc1ccc(C(=O)/C=C/c2ccc3nccnc3c2)c(OC)c1OC [N36],MIC,[4]; [9],25 µg/mL
"[N-]=[N+]=[N-].[Na+] [NaN3, sodium azide, reference compound]",MI: mutagenic index,S. typhimurium TA100; [10],6.03
same,Number of revertants/plate,S. typhimurium TA100; [10],695.5±40.3 Rev/plate
same,MI: mutagenic index,S. typhimurium TA1535; [11],100.0
same,Number of revertants/plate,S. typhimurium TA1535; [11],1133.0±179.6 Rev/plate
"CO[C@H]1/C=C/O[C@@]2(C)Oc3c(C)c(O)c4c(O)c(c(/C=N/N5CCN(C)CC5)c(O)c4c3C2=O)NC(=O)/C(C)=C\C=C\[C@H](C)[C@H](O)[C@@H](C)[C@@H](O)[C@@H](C)[C@H](OC(C)=O)[C@@H]1C [RIF, Rifampicin]",MIC,[5],<0.2 µg/mL
same,MIC,[6],<0.2 µg/mL
